We go through 4 molecules from publication PMC4595804, “A strategy to discover decoy chemokine ligands with an anti-inflammatory activity” (Scientific Reports, 2015).

One assay concerns the target CXCR4 (Homo sapiens, UniProt P61073). The settings on record: EGFP-CXCR4+ HEK cells, 1 h preincubation.
The target in assay [1] is T1, CCL17 (Homo sapiens, UniProt Q92583).
T1 construct: codes for the mature CCL17 or CCL22 with an N-terminal thioredoxin-hexahistidin (TRX- (His)6) tag; thioredoxin (TRX) (N, cleaved yes); (His)6 (N, cleaved yes); made in house; host or cells: E. coli BL21 (DE3)
T1 sequence (Q92583 24-94): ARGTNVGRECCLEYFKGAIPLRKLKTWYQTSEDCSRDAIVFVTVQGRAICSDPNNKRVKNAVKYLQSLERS
The assay is described as follows: Tryptophan fluorescence assay on CCL17. Format: binding. The settings on record: 0–25 μM compound. As to the method: Fluorescence measurements were performed on a spectrofluorometer (JobinYvon/Spex) in a quartz microcuvette at 20 °C. CCL17 and CCL22 (1.5 μM in HEPES buffer without BSA) were excited at 285 nm and emission spectra were recorded (300–400 nm). […] The fluorescence emission spectra were corrected by subtracting the emission scan of the compounds alone and data analysis was carried out with fluorescence intensities detected at 340 nm.

In assay [2] the target is T2, CCR4 (Homo sapiens, UniProt P51679).
T2 construct: signal peptide fused to EGFP (N); expressed in transfected cells; host or cells: HEK-293
T2 sequence (P51679 1-360): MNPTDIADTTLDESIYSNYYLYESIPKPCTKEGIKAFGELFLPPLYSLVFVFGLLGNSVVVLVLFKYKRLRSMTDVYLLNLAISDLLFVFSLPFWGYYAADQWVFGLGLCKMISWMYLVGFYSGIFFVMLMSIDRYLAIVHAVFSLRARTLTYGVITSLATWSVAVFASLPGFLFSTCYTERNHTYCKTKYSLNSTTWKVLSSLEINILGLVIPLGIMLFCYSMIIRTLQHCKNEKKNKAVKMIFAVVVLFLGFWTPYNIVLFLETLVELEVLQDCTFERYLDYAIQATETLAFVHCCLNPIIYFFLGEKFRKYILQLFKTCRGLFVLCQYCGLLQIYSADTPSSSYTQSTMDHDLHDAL
The assay is described as follows: TRIC-r calcium assay, antagonist protocol: compound preincubated with CCR4-expressing cells. Format: cell-based. The settings on record: primary screen. The protocol:
(§1) Two plates (96-well plates, Greiner) were prepared for the screen: one containing test compounds alone in order to determine their direct agonistic activity, and another one containing test compounds mixed with CCL17 or CCL22 at room temperature for 1 h (neutraligand protocol). The chemokines and test compounds were prepared at a 3× concentration, while digitonin was prepared at a 4× concentration. The CCR4 antagonist, C-021 served as control in the experiment. In the antagonist protocol, compounds were added to the cell plate (one compound per well) and incubated with cells for 30 min at room temperature, while the agonist (CCL17 or CCL22) was added to the ligand plate only.
Dye loaded cells were placed in the FlexStation 3 (Molecular Devices). Calcium mobilization was measured at 401 and 475 nm emission fluorescence after excitation at 355 nm. For the primary screening, the ligands (50μl of chemokine mixed with DMSO or test compounds) were added to the cells at 40 s, followed by digitonin addition (50μl) at 100 s to the cells. […] Raw fluorescence data (at 401 and 475 nm) were exported and the ratio 401/475 was calculated. The calcium response values (height of peak response over baseline) were determined. […] Hit molecules were confirmed by performing concentration-response curves and their half maximal inhibitory concentration (IC50) values were calculated using the Kaleidagraph software.

A further assay concerns the target T3, CCL22 (Homo sapiens, UniProt O00626).
T3 construct: codes for the mature CCL17 or CCL22 with an N-terminal thioredoxin-hexahistidin (TRX- (His)6) tag; thioredoxin (TRX) (N, cleaved yes); (His)6 (N, cleaved yes); made in house; host or cells: E. coli BL21 (DE3)
T3 sequence (O00626 25-93): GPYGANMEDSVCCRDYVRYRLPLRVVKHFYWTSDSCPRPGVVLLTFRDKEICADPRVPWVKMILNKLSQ
Description: Tryptophan fluorescence assay on CCL22. Format: binding. Particulars: 0–25 μM compound. As to the method:
Fluorescence measurements were performed on a spectrofluorometer (JobinYvon/Spex) in a quartz microcuvette at 20 °C. […] The fluorescence emission spectra were corrected by subtracting the emission scan of the compounds alone and data analysis was carried out with fluorescence intensities detected at 340 nm.

For the next assay, the system named is CCR4+ HUT78 cells. Description: HUT78 chemotaxis: compounds alone or preincubated with the cells (antagonist protocol). Format: cell-based, human. Particulars: receptor antagonist protocol, 1 μM, 3 nM CCL17 or CCL22. As to the method: Cell migration was carried out in RPMI1640-BSA (0.1%) using Transwell 96-well plates (Corning Costar, 5 μm pore size, polycarbonate membranes). […] Lower wells contained the same medium diluted with DMSO or chemokine (3 nM CCL17 or CCL22).
0.1% BSA using Transwell 96-well plates (Corning Costar, 5µm pore size, polycarbonate […]
the same medium diluted with DMSO or chemokine (3nM CCL17 or CCL22). In neutraligand inhibition studies, prior to their use, CCL17 (a) and CCL22 (b) were pre-incubated with […]
in the lower compartment. For characterization of the antagonist properties, the compounds were pre-incubated with the cells in the upper compartment. C-021 (1µM, stripped bars), the CCR4 receptor antagonist, was used as a control in both incubation protocols. Results are expressed as the percentage of cells that migrated to the lower chamber. Data represent the means±SD. Experiments were performed in triplicate.
(1 picture or pasted object on this page, not shown here)

Assay [3] concerns the target T1, CCL17. Description: TRIC-r calcium assay, neutraligand protocol: compound preincubated with CCL17, EGFP-CCR4+Gqi5+ HEK cells. Format: cell-based. Particulars: neutraligand protocol, control compound. As to the method:
EGFP-CCR4^+Gqi5^+HEKcells were loaded with fluorescent Ca^2+-indicator Indo-1 AM (5μM, Interchim) for 45 min at 37 °C. […] Cells (100,000 cells/well, 100μl) were seeded in black clear bottom 96-well plates (Greiner), and centrifuged at 250 × g for 5 min.
as §1
Dye loaded cells were placed in the FlexStation 3 (Molecular Devices). […] For the primary screening, the ligands (50μl of chemokine mixed with DMSO or test compounds) were added to the cells at 40 s, followed by digitonin addition (50μl) at 100 s to the cells. Molecules were screened at a final concentration of 2μg/ml with 5 nM CCL17 or CCL22. […] The calcium response values (height of peak response over baseline) were determined. Hits were selected by comparing the response amplitude at the time of the chemokine addition ± test compound. The Z’ factor[29] was calculated according to the following equation: Z’ = 1-(3SD+ + 3SD−)/|Ave+ − Ave−|, where SD+ and Ave+ are respectively the standard deviation and the mean value of the positive controls (chemokine + DMSO), while SD− and Ave− are respectively the standard deviation and the mean value of the negative controls (HEPES-BSA (0.1%) mixed with DMSO, or cells mixed with C-021). Hit molecules were confirmed by performing concentration-response curves and their half maximal inhibitory concentration (IC50) values were calculated using the Kaleidagraph software.

In assay [4] the target is T2, CCR4. Description: Dose-response of chemokine-induced calcium responses in EGFP-CCR4+Gqi5+ HEK cells. Format: cell-based. Particulars: recombinant chemokine, + Gqi5, 21 °C. As to the method:
EGFP-CCR4^+Gqi5^+HEKcells were loaded with fluorescent Ca^2+-indicator Indo-1 AM (5μM, Interchim) for 45 min at 37 °C. The cells were detached in PBS-EDTA (5 mM) for 2 min, suspended in growth medium, pelleted by centrifugation at 320 × g for 5 min, and resuspended in HEPES-BSA buffer (137.5 mM NaCl, 6 mM KCl, 1.25 mM CaCl2, 1.25 mM MgCl2, 0.4 mM NaH2PO4, 5.6 mM glucose, 10 mM HEPES, BSA (0.1%, w/v), pH 7.4). Cells (100,000 cells/well, 100μl) were seeded in black clear bottom 96-well plates (Greiner), and centrifuged at 250 × g for 5 min.
Dye loaded cells were placed in the FlexStation 3 (Molecular Devices). Calcium mobilization was measured at 401 and 475 nm emission fluorescence after excitation at 355 nm. […] Raw fluorescence data (at 401 and 475 nm) were exported and the ratio 401/475 was calculated. The calcium response values (height of peak response over baseline) were determined. […] The Z’ factor[29] was calculated according to the following equation: Z’ = 1-(3SD+ + 3SD−)/|Ave+ − Ave−|, where SD+ and Ave+ are respectively the standard deviation and the mean value of the positive controls (chemokine + DMSO), while SD− and Ave− are respectively the standard deviation and the mean value of the negative controls (HEPES-BSA (0.1%) mixed with DMSO, or cells mixed with C-021). […]

The target of assay [5] is T2, CCR4. Description: EGFP-CCR4 receptor surface level / endocytosis on EGFP-CCR4+ HEK cells. Format: cell-based. The settings on record: 100 nM chemokine, 30 min, EGFP-CCR4+ HEK cells. As to the method:
CCR4 levels were evaluated by flow cytometry (FACSCalibur, BD biosciences) using cell surface labeling of EGFP with monoclonal mouse anti-GFP (Roche Applied Science; 1:100 dilution) as primary antibody and R-phycoerythrin conjugated AffiniPure F (ab’)2 fragment goat anti-mouse (Immunotech; 1/100) as secondary antibody.

CXCR4, sequence (P61073 whole entry): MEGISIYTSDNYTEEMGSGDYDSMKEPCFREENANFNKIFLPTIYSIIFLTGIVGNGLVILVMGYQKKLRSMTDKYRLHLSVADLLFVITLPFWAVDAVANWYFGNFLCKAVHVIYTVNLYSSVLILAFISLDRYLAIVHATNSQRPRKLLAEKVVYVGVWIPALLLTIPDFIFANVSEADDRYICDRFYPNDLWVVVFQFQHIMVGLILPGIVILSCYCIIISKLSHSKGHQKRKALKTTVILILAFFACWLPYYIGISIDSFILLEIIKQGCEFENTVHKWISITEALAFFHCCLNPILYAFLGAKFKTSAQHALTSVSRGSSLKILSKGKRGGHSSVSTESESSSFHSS
Description for CXCR4: The identification of neutraligands relies on the measurement of kinetic-based calcium responses.
Monitoring calcium responses in a time-resolved manner allows the discrimination of compounds binding to the chemokine from those binding to the receptor. This is achieved using a pre-incubation protocol in which the tested compounds are preincubated with the receptor or with the chemokine prior to calcium monitoring. […] These incubation protocols are named Time-Resolved Intracellular Calcium recordings (TRIC-r) allowing the identification of neutraligands versus receptor antagonists.

Consider `c1cc(CN2CCCNCCNCCCNCC2)ccc1CN1CCCNCCNCCCNCC1` [AMD3100], for which the “amplitude of CXCL12 calcium responses, preincubation with the chemokine compared with preincubation with the receptor” value at CXCR4 is on record as “much greater”.
As to `COc1cc2nc(N3CCC(N4CCCCC4)CC3)nc(NC3CCCCCC3)c2cc1OC` [C-021, reference compound], the “change in tryptophan fluorescence of CCL17” value on CCL17 [1] was “No significant change”. Besides, at CCR4 [2], the “effect on the response to CCL17 or CCL22 after preincubation with the receptor-expressing cells” value is “abolished responses”. Further, the “change in tryptophan fluorescence of CCL22” value at CCL22 is on record as “No significant change”. The “inhibition of CCR4+ HUT78 T cell migration, compound preincubated with the cells” value with CCR4+ HUT78 cells amounted to 90%. Further, the “effect on CCL17 calcium responses after preincubation with the chemokine” value on CCL17 [3] was “not with the chemokine”.

B1: CCL17: recombinant human chemokine (Thymus and Activation-Regulated Chemokine), CCR4 agonist, produced in E. coli (protein)
chain: T1 sequence (Q92583 24-94)
modifications: left off: thioredoxin (TRX), N-terminal, cleaved | His6, N-terminal, cleaved
For B1, in the assay with CCR4 [4], the EC50 amounted to 3.7 ± 0.4 nM. Besides, in the assay with CCR4 [5], the “CCR4 internalization (receptor endocytosis) induced by the chemokine” value is reported as “approximately 43.0 ± 3.0%”.

B2: CCL22: recombinant human chemokine (Macrophage-Derived Chemokine), CCR4 agonist, produced in E. coli (protein)
chain: T3 sequence (O00626 25-93)
modifications: left off: thioredoxin (TRX), N-terminal, cleaved | His6, N-terminal, cleaved
notes: recombinant human chemokine (Macrophage-Derived Chemokine), CCR4 agonist, produced in E. coli
Regarding B2, the EC50 in the assay with CCR4 [4] worked out at 2.9 ± 0.5 nM. For the same molecule, in the assay with CCR4 [5], the “CCR4 internalization (receptor endocytosis) induced by the chemokine” value is listed as 78.0 ± 3.0%.
